Data taken from patent publication US20120309087A1, “CANCER THERAPY” (University Court of The University of Dundee, priority 2006, published 2012).

Legend:
[1] = system: AKR1C and NQO1 protein in MCF7 cells; assay: AKR1C and NQO1 protein in MCF7 cells (Western blots); assay type: cell-based, human; conditions: 24 hrs; for sulforaphane-induced AKR1C protein: sulforaphane 5 μM + retinoid 0.5 μM
Experimental: Method: AREc32 cells were seeded out in 96 well plates and treated with DMSO (control), tBHQ (50 μM), tBHQ+BTB09463 (5 μM) or tBHQ+Retinoic acid (1 μM). After 24 hours incubation, cells were washed and lysed before measuring luciferase activity. BTB09463 is 1-{4-[(3,4-dichlorobenzyl)oxy]phenyl}ethan-1-one. […] Method: AREc32 cells were seeded out in 96 well plates and dosed with BTB09463 (2.5, 5 or 10 μM) for 0, 24 or 48 hrs before treatment with tBHQ (50 μM). 24 hours after the addition of tBHQ, cells were washed and lysed before measuring luciferase activity. […] Method: ARE c32 cells were seeded out in 96 well plates and treated with DMSO (control), tBHQ (50 μM), tBHQ+retinoid (0.25, 0.5 and 1 μM). After 24 hours incubation, cells were washed and lysed before measuring luciferase activity. […] See FIG. 16 Method: A. Caco-2 cells were treated with the known ARE-gene inducer sulforaphane (5 μM), either alone or concomitantly with BTB09463 (5 μM) or Retinoic acid (1 μM). After 24 hrs, cell lysates were prepared and Western blotting performed to measure the levels of AKR1C protein. B. MCF7 cells were treated with sulforaphane (5 μM), either alone or concomitantly with BTB09463 (5 μM). After 24 hrs, cell lysates were prepared and Western blots performed to detect the levels of AKR1C and NQO1; GAPDH was used as a loading control in MCF7 cells. […] Method: Caco-2 cells were treated with DMSO (control), BTB09463 (5 μM), sulforaphane (5 μM) or a combination of sulforaphane plus BTB09463. After 24 hrs treatment, cells were harvested and RNA isolated. cDNA for each sample was generated by reverse transcription and subsequently used in real time PCR analysis of gene transcription (TaqMan analysis) for the ARE-driven genes AKR1C1 and NQO1. Data was normalised to the internal control 18S RNA and the relative levels of AKR1C1 and NQO1 calculated using the comparative CT method. […] Method: MCF7 cells were treated with the known ARE-gene inducer sulforaphane (5 μM), either alone or with various retinoids (0.5 μM). After 24 hrs, cell lysates were prepared and Western blots were performed to detect the levels of AKR1C protein present. […] See FIG. 19 Method: ARE reporter cell line AREc23 was seeded into 96 well plates and treated with a previously determined non-toxic concentration of cytotoxic drug. After 24 hours incubation, cells were washed and lysed before measuring luciferase activity. […] See FIG. 20a Method: ARE reporter cell line AREc23 was seeded into 96 well plates and treated with DMSO (control), Carmustine (100 μM), Carmustine+BTB09463 (5 μM) or Carmustine+Retinoic acid (5 μM) After 24 hours incubation, cells were washed and lysed before measuring luciferase activity. […] After 24 hours incubation, cells were washed and lysed before measuring luciferase activity. B. Modified repeat of experiment A, with cells being pretreated with L-buthionine-(SR)-sulfoximine (BSO), an inhibitor of enzymes in the glutathione synthesis pathway. After 24 hours incubation, cells were washed and lysed before measuring luciferase activity. […] Method: Caco-2 cells were treated for 24 hrs with DMSO (control), Carmustine (100 μM), Carmustine+BTB09463 (5 μM). After 24 hrs, cell lysates were prepared and Western blots to detect the levels of AKR1C. […] Method: MCF7 cells were treated for 24 hrs with DMSO (control; Lane 1), Sulforaphane (5 μM) (Lane 2), Carmustine (100 μM) (Lane 3), Carmustine+BTB09463 (5 μM) (Lane 5). (Lane 4 represents experimental conditions irrelevant to the application). After 24 hrs, cell lysates were prepared and Western blots to detect the levels of Nrf2, NQO1 and AKR1C proteins.

MCF7 cells = assay: cells; assay type: cell-based; conditions: for synergy with Bleomycin (cell killing, isobologram): 72 hrs; for IC50: Homo sapiens, single agent
[2] = system: ARE-driven luciferase activity in AREc32 cells; assay: Induction of ARE-driven luciferase activity in stable AREc32 reporter cells; assay type: cell-based, human
[3] = system: AKR1C protein in Caco-2 cells; assay: AKR1C protein in Caco-2 cells (Western blotting); assay type: cell-based, human; conditions: 24 hrs
Experimental: (§1) Method: AREc32 cells were seeded out in 96 well plates and treated with DMSO (control), tBHQ (50 μM), tBHQ+BTB09463 (5 μM) or tBHQ+Retinoic acid (1 μM). After 24 hours incubation, cells were washed and lysed before measuring luciferase activity. BTB09463 is 1-{4-[(3,4-dichlorobenzyl)oxy]phenyl}ethan-1-one. […] Method: AREc32 cells were seeded out in 96 well plates and dosed with BTB09463 (2.5, 5 or 10 μM) for 0, 24 or 48 hrs before treatment with tBHQ (50 μM). 24 hours after the addition of tBHQ, cells were washed and lysed before measuring luciferase activity. […] Method: ARE c32 cells were seeded out in 96 well plates and treated with DMSO (control), tBHQ (50 μM), tBHQ+retinoid (0.25, 0.5 and 1 μM). After 24 hours incubation, cells were washed and lysed before measuring luciferase activity. […] See FIG. 16 Method: A. Caco-2 cells were treated with the known ARE-gene inducer sulforaphane (5 μM), either alone or concomitantly with BTB09463 (5 μM) or Retinoic acid (1 μM). After 24 hrs, cell lysates were prepared and Western blotting performed to measure the levels of AKR1C protein. B. MCF7 cells were treated with sulforaphane (5 μM), either alone or concomitantly with BTB09463 (5 μM). After 24 hrs, cell lysates were prepared and Western blots performed to detect the levels of AKR1C and NQO1; GAPDH was used as a loading control in MCF7 cells. […] Method: Caco-2 cells were treated with DMSO (control), BTB09463 (5 μM), sulforaphane (5 μM) or a combination of sulforaphane plus BTB09463. After 24 hrs treatment, cells were harvested and RNA isolated. cDNA for each sample was generated by reverse transcription and subsequently used in real time PCR analysis of gene transcription (TaqMan analysis) for the ARE-driven genes AKR1C1 and NQO1. Data was normalised to the internal control 18S RNA and the relative levels of AKR1C1 and NQO1 calculated using the comparative CT method. […] Method: MCF7 cells were treated with the known ARE-gene inducer sulforaphane (5 μM), either alone or with various retinoids (0.5 μM). After 24 hrs, cell lysates were prepared and Western blots were performed to detect the levels of AKR1C protein present. […] See FIG. 19 Method: ARE reporter cell line AREc23 was seeded into 96 well plates and treated with a previously determined non-toxic concentration of cytotoxic drug. After 24 hours incubation, cells were washed and lysed before measuring luciferase activity. […] See FIG. 20a Method: ARE reporter cell line AREc23 was seeded into 96 well plates and treated with DMSO (control), Carmustine (100 μM), Carmustine+BTB09463 (5 μM) or Carmustine+Retinoic acid (5 μM) After 24 hours incubation, cells were washed and lysed before measuring luciferase activity. […] After 24 hours incubation, cells were washed and lysed before measuring luciferase activity. […]

A549 cells = assay: Cytotoxicity in A549 cells (ATP levels, 72 h); assay type: cell-based, human; conditions: Homo sapiens, single agent
[4] = system: AKR1C mRNA in AREc32 cells; assay: AKR1C mRNA in AREc32 cells (TaqMan); conditions: without BSO; 100 μM BCNU, 24 h
[5] = system: ARE-driven luciferase activity in AREc32 cells; assay: Antagonism of induced ARE-driven luciferase activity in AREc32 cells; assay type: cell-based, human
[6] = system: AKR1C1 and NQO1 mRNA in Caco-2 cells; assay: AKR1C1 and NQO1 mRNA in Caco-2 cells (TaqMan); assay type: cell-based, human; conditions: sulforaphane 5 μM + BTB09463 5 μM, 24 hrs
Experimental: as §1

[7] = system: AKR1C protein in LS174 cells; assay: AKR1C protein in LS174 cells; assay type: cell-based, human; conditions: data not shown
[8] = system: AKR1C1, NQO1, GCLC, GCLM mRNA in A549 cells; assay: Constitutive mRNA of ARE-driven genes in A549 cells (Taqman); assay type: cell-based, human; conditions: 24 hrs; for constitutive expression of AKR1C1 mRNA: BTB09463 1, 5, 20, 40 μmol/l or retinoids 0.050, 0.20, 0.50, 2.0 μmol/l
Fas-induced killing = conditions: WO 01/57189; cited from earlier work
[9] = Carmustine 100 μM + BTB09463 5 μM

## COc1cc(C)c(/C=C/C(C)=C/C=C/C(C)=C/C(=O)O)c(C)c1C [Acitretin]
[1]
  sulforaphane-induced AKR1C protein: reduced the expression of sulforaphane-induced AKR1C
MCF7 cells
  synergy with Bleomycin (cell killing, isobologram): very potent, synergistic increase in cell killing

## O=NN(CCCl)C(=O)NCCCl [BCNU, carmustine]
[2]; 24 h, sub-lethal doses, no BSO
  effect on luciferase activity in AREc32 cells (in words): stronger inducing agent
[2]; AREc32, 24 h, grouping of drugs by effect on luciferase activity
  Type of modulation: Weak inducers
[2]; previously determined non-toxic concentration, 24 hours
  induction of ARE-driven luciferase activity: 4.5 fold
[3]; Carmustine 100 μM
  AKR1C protein expression: massive induction
[1]; Carmustine 100 μM
  NQO1 and AKR1C protein expression: caused over-expression of NQO1 and AKR1C protein
MCF7 cells
  IC50: 291 µM
A549 cells
  IC50: > 1500 µM
[4]
  induction of AKR1C mRNA: 3 fold

## CC(=O)c1ccc(OCc2ccc(Cl)c(Cl)c2)cc1 [BTB09463, 1-{4-[(3,4-dichlorobenzyl)oxy]phenyl}ethan-1-one]
[5]; 50 μM tBHQ + 5 μM BTB09463, 24 h
  suppression of tBHQ induction of luciferase: approximately 65%
[5]; BTB09463 2.5, 5 or 10 μM for 0, 24 or 48 hrs before 50 μM tBHQ
  suppression of tBHQ-mediated induction of luciferase expression, by dosing regimen: identical under each dosing regimen
[5]; Carmustine 100 μM + BTB09463 5 μM or Retinoic acid 5 μM, 24 hours
  carmustine-mediated induction of luciferase activity: completely suppress
[3]; [9]
  carmustine induction of AKR1C protein: attenuated
[3]; sulforaphane 5 μM, BTB09463 5 μM or Retinoic acid 1 μM
  sulforaphane induction of AKR1C protein: dramatically reduced
[1]; [9]
  carmustine over expression of AKR1C and NQO1 protein: attenuated
[1]; sulforaphane 5 μM + BTB09463 5 μM
  sulforaphane-driven induction of NQO1 and AKR1C protein: potently inhibited
[6]
  reduction of sulforaphane-induced AKR1C1 mRNA: 50%
  sulforaphane-induced NQO1 mRNA expression: reduced to basal levels
[7]
  carmustine induction of AKR1C protein: reproduced in LS174 cells
MCF7 cells
  IC50: 28 µM
A549 cells
  IC50: 52 µM
[8]
  constitutive expression of AKR1C1 mRNA: inhibited the constitutive expression of AKR1C1 in a concentration-dependent manner
[8]; BTB09463 1-40 μmol/l or retinoic acid 0.050-2.0 μmol/l
  constitutive mRNA levels of NQO1, GCLC and GCLM: repressed the constitutive mRNA levels of NQO1, GCLC and GCLM in a concentration-dependent manner

## O=c1oc2ccccc2c(O)c1Cc1c(O)c2ccccc2oc1=O [Dirumarol]
Fas-induced killing
  protection conferred by Nrf2 against Fas-induced killing: antagonise protection conferred by Nrf2 against Fas-induced killing

## CC(=O)OC/C=C(C)/C=C/C=C(C)/C=C/C1=C(C)CCCC1(C)C [Retinyl acetate]
[1]
  sulforaphane-induced AKR1C protein: reduced the expression of sulforaphane-induced AKR1C
MCF7 cells
  synergy with Bleomycin (cell killing, isobologram): very potent, synergistic increase in cell killing
[8]
  constitutive expression of AKR1C1 mRNA: inhibited the constitutive expression of AKR1C1 in a concentration-dependent manner
